Consider five molecules from PMC6511888, “Synthesis, Biological Evaluation, and Molecular Modeling Studies of New Thiadiazole Derivatives as Potent P2X7 Receptor Inhibitors” (Frontiers in Chemistry, 2019).

The structures appear in SMILES notation. ≈ marks a conversion by molar mass, not a printed value. Read-outs that look alike come from different tables or passages of the source. Some results are limits rather than exact numbers.

A short description of one series: Caco-2 cell permeability. In kind it is in vitro ADME. Details: Papp at 60 min: dose or concentration left out as unconfirmed. Conditions: human, Caco-2, pH 7.4; apical to basolateral (A - B); mean ± standard error of three experiments; read-out: Caco-2 apparent permeability (Papp). The procedure:
Corning® Costar® Transwell plates (Sigma-Aldrich, St. Louis, MO, USA) were used for seeding Caco-2 cells at 3 × 10^5 cells/well bathed with DMEM supplemented with 10% FSB according to Faria and collaborator in 2018 (Faria et al., [2018]). This culture was maintained for up to 21 days in a humidified incubator at 37°C and 5% CO2. Thiadiazole analog, vinblastine (poor permeability control), and propranolol (high permeability control) stock solutions, all at a concentration of 100 mM, were prepared in Hanks' balanced salt solution (HBSS) containing 25 mM HEPES at pH 7.4 with 0.5% (v/v) DMSO. Transport buffer (0.3 ml) was added to each well to equilibrate the cells with the transport buffer. A 24-well enhanced recovery plate containing 1 ml of transport buffer (pH 7.4) was substituted for the feeder tray. The transport buffer in the apical wells was removed, and 0.3 ml of a solution containing thiadiazoles 9b, 9c, 9f, or 11c; vinblastine; or propranolol was added. Then, the cells were replaced for incubation for 60 min. Lucifer yellow concentrations in the donor and acceptor wells were measured in the last of this incubation. Lucifer yellow was measured using an M5 plate reader ([…]) at an excitation wavelength of 485 nm and an emission wavelength of 530 nm.

Series [1] in a line: pH-dependent kinetic solubility. In kind it is physicochemical. Conditions: kinetic from dmso stock. The procedure:
DMSO stock solutions (5 μl) were added into a 995-μl acetonitrile/buffer (1:1) mixture to prepare the calibration standard solutions. The reaction samples were centrifuged (10,000 rpm, 10 min, 25°C) and diluted 1:1 with acetonitrile (Faria et al., [2018]).

Series [2] in a line: Stability in mouse liver microsomes. It is filed as in vitro ADME. Conditions: male, pH 7.4, read-out: LM stability mouse (CLint). The procedure:
Thiadiazole 9f stability was evaluated in liver microsomes from male mice and humans according to Faria et al. in 2018 (Faria et al., [2018]). Both solutions contained a final protein concentration of 0.5 mg/ml (0.1 M phosphate buffer) at pH 7.4. Microsomes were preincubated with 9f (1 μM) and DMSO ([…]) at 37°C before NADPH (1 mM) addition. A control for the reaction was a buffer containing 0.1 M phosphate at pH 7.4 in a final volume of 50 μl. Diazepam and verapamil were used as positive controls for mice and humans, respectively. Both types of microsomes were treated with 9f for 0, 5, 15, 30, and 45 min and the negative control [minus Nicotinamide adenine dinucleotide phosphate (NADPH)] for 45 min. To stop the reactions, methanol (50 μl) was added at the appropriate time points, and the samples were centrifuged (1,640 × g) for 20 min at 4°C to […] protein precipitation.
In vitro intrinsic clearance (CLint mic) for the metabolism of 9f in mouse and human liver microsomes was calculated using the equations below:
Half-life (t1/2) (minutes) = 0.693/k (1)
V(μL/mg) = volume of the incubation solution (μl)/protein in the incubation solution (mg) (2)
Intrinsic clearance (CLint) (μl/minutes/mg protein) = V × 0.693/t1/2 (3) according to the manufacturer's instructions.

Series [3] in a line: LDH release assay (toxicity). In kind it is cell-based, mouse. The note with it: mouse peritoneal macrophages; for IC50 at 24 h: read-out: Macrophages IC50 (toxic effect); for CC50 at 24 h: mouse, peritoneal macrophages, toxicity measured for 24 h. How it is done:
(§1) Mouse peritoneal macrophages (5 × 10^5 cells) and HEK-293 cells transfected with P2X7R (5 × 10^5 cells) were plated in a 96-well-plate for 24 h before the treatment. […] The supernatant collected in this assay was used to measure the presence of LDH in the media using a cytotoxicity detection kit (Sigma kit for LDH) according to the manufacturer's instructions (Faria et al., [2018]).

For series [4], the system named is mouse peritoneal macrophages. As to the kind of experiment: LDH release assay (toxicity). It is filed as cell-based. Conditions: 10 μM; relative to maximum LDH release caused by 0.05% Triton X-100; cell type not given; mean ± SD. The procedure: as §1
Background: LDH leaks from cells whose membrane has failed.

The subject of series [5] is P2X7R-mediated IL-1β release. As to the kind of experiment: ATP-induced IL-1β release (ELISA) in differentiated THP-1 cells. In kind it is cell-based, human.
Method: P2X7R-mediated IL-1β release was obtained from differentiated THP-1 cells stimulated with lipopolysaccharide (LPS) before ATP addition. […] THP-1 cells were differentiated with 500 ng/ml phorbol 12-myristate 13-acetate (PMA) and 10 ng/ml IFN-γ cotreatment for 24 h. These cells were activated with 25 ng/ml LPS for 4 h. […] P2X7R antagonists (BBG and A740003) and thiadiazole analogs were added 30 min before the ATP stimulus. The supernatants were collected, centrifuged (1,000 rpm for 5 min at 4°C), and stored at −70°C after LPS incubation. IL-1β was quantified using a standard kit (ABCAM, Cambridge).
Series [6] can be described thus: Distribution coefficient (Log D) in octanol/PBS pH 7.4. The note with it: average of three experiments, read-out: Log D7.4. It is filed as physicochemical. How it is done: Octanol and Phosphate-buffered saline (PBS) solution at a ratio of 1:1 (v/v) at pH 7.4 was shaken mechanically for 24 h to reach presaturation. Crescent octanol volumes (100–400 μl) were added to PBS (396 μl) and thiadiazole 9f (25 mM) in a volume of 4 μl. This solution was shaken for 2 h and centrifuged (3,000 rpm) for 5 min, and the PBS layer was collected 1 h later. To measure the PBS layer absorbance, a 100-μl aliquot (396 μl of PBS containing 4 μl of 9f + 400 μl of acetonitrile) was partitioned with acetonitrile (100 μl; Faria et al., [2018]).

The mark [7] stands for this setting: buffer, aqueous buffer, acidic pH values.
Where [8] appears, read: phosphate buffer, pH 7.4, aqueous buffer.
Where [9] appears, read: ATP-induced IL-1β release, LPS/IFN-differentiated human THP-1 cells, read-out: THP-1 cells IC50.

The term Papp denotes the rate of passage across a membrane or cell layer, normalised by area and donor concentration. By solubility is commonly meant how much of the substance goes into solution per volume. As usually defined, the IC50 is the concentration at which inhibition is half-maximal. Broadly, the CC50 is the concentration giving 50% cytotoxicity.

In the case of `N#Cc1cnn(-c2nnc(-c3ccccc3Cl)s2)c1N` [Compound 9b], in “Caco-2 cell permeability”, the Papp at 60 min stood at 50.1 ± 1.1 ×10⁻⁶ cm/s. Also, the solubility at 2 h in series [1] (setting [7]) is 300 µM (≈ 90.8 µg/mL); in series [1] (buffer, pH 10, aqueous buffer), more than 500 µM; in series [1] (setting [8]), more than 500 µM. The microsomal CLint at 1 μM in series [2] is 14.3 µL/min/mg. In addition, the IC50 at 24 h in series [3] was 2.27 ± 0.086 mM. Besides, the CC50 at 24 h in series [3] worked out at 2.27 mM. For the same molecule, the “% LDH release” value in series [4] worked out at 15.8 ± 1.3%. Also, in series [5] (setting [9]), the IC50 was 298 ± 8 nM. Besides, the “Potency relative to BBG (times more potent)” value (“Potency relative to BBG” for short) in series [5] (IL-1β release, THP-1 cells) was “approximately 10 times”. Also, the logD in series [6] is -1.2 ± 0.1.
For `N#Cc1cnn(-c2nnc(-c3ccc(F)cc3)s2)c1N` [Compound 9c], the Papp at 60 min in “Caco-2 cell permeability” was determined as 56.1 ± 2.1 ×10⁻⁶ cm/s. Moreover, the solubility at 2 h is 300 µM (≈ 85.9 µg/mL) in series [1] (setting [7]); more than 500 µM in series [1] (buffer, pH 10, aqueous buffer); more than 500 µM in series [1] (setting [8]). For the same molecule, the microsomal CLint at 1 μM in series [2] came to 11.6 µL/min/mg. Also, in series [3], the IC50 at 24 h came out at 3.9 ± 0.077 mM. The same molecule had a CC50 at 24 h in series [3] of 6.08 mM. Also, the “% LDH release” value in series [4] turned out to be 10 ± 0.7%. Moreover, the IC50 in series [5] (setting [9]) worked out at 279 ± 35 nM. Also, the “Potency relative to BBG” value in series [5] (IL-1β release, THP-1 cells) was “approximately 10 times”. Besides, the logD in series [6] is -0.9 ± 0.1.
`CCOC(=O)c1cnn(-c2nnc(-c3ccccc3Cl)s2)c1N` [Compound 9f]: the Papp at 60 min in “Caco-2 cell permeability” is 73.4 ± 3.3 ×10⁻⁶ cm/s. In addition, the solubility at 2 h is 300 µM (≈ 105 µg/mL) in series [1] (setting [7]); more than 500 µM in series [1] (buffer, pH 10, aqueous buffer); more than 500 µM in series [1] (setting [8]). In addition, the microsomal CLint at 1 μM in series [2] is 26.7 µL/min/mg. In series [3], the IC50 at 24 h was 6.08 ± 0.102 mM. Besides, in series [3], half-maximal cytotoxicity (CC50 at 24 h) was put at 3.9 mM. Besides, the “% LDH release” value in series [4] is 42.5 ± 0.4%. Also, the IC50 was 19 ± 3 nM in series [5] (setting [9]) and 20 to 300 nM in series [5] (Homo sapiens, THP-1 cells, read-out: IC50, IL-1β release). The “Potency relative to A740003” value in series [5] (IL-1β release, THP-1 cells) is reported as more than 10 times. Further, in series [5] (IL-1β release, THP-1 cells), the “Potency relative to BBG” value is “more than 20 times”. The logD in series [6] is -3.7 ± 0.2.
Regarding `Cc1cc(C)n(-c2nnc(-c3ccc(F)cc3)s2)n1` [Compound 11c, 2-(3,5-dimethyl-1H-pyrazol-1-yl)-5-(4-fluorophenyl)-1,3,4-thiadiazole], the Papp at 60 min in “Caco-2 cell permeability” came to 77.9 ± 1 ×10⁻⁶ cm/s. The solubility at 2 h in series [1] (setting [7]) was 300 µM (≈ 82.3 µg/mL); in series [1] (buffer, pH 10, aqueous buffer) it was more than 500 µM; in series [1] (setting [8]), more than 500 µM. Moreover, the microsomal CLint at 1 μM in series [2] was found to be 38.5 µL/min/mg. Also, the 50% inhibitory concentration (IC50) at 24 h in series [3] is 3.24 ± 0.201 mM. The same molecule gave a CC50 at 24 h in series [3] of 3.24 mM. In series [4], the “% LDH release” value is 24 ± 1.7%. Also, the IC50 in series [5] (setting [9]) stood at 240 ± 17 nM. Moreover, in series [5] (IL-1β release, THP-1 cells), the “Potency relative to BBG” value is given as “approximately 10 times”. In addition, in series [6], the logD is -4.2 ± 0.4.
Regarding `COc1ccc(CC(=O)NC(NC(=NC#N)Nc2cccc3ncccc23)C(C)(C)C)cc1OC` (stereo not drawn) [Compound A740003, N-(1-{[(cyanoimino)(5-quinolinylamino)methyl]amino}-2,2-dimethylpropyl)-2-(3,4-dimethoxyphenyl)acetamide], the IC50 at 24 h in series [3] worked out at 0.325 ± 0.006 mM. Moreover, in series [5] (setting [9]), the IC50 amounted to 223 ± 18 nM.
